target: T1, GSK-3β (AA 1-420) (Homo sapiens, UniProt P49841); assay: Ki determination for the inhibition of GSK-3 (coupled enzyme system); assay type: biochemical; conditions: 20 μM ATP, 20 nM GSK-3β, 30° C.
T1 construct: GSK-3β (AA 1-420)
Description: Compounds were screened for their ability to inhibit GSK-3β (AA 1-420) activity using a standard coupled enzyme system (Fox et al. (1998) Protein Sci. 7, 2249). Reactions were carried out in a solution containing 100 mM HEPES (pH 7.5), 10 mM MgCl2, 25 mM NaCl, 300 μM NADH, 1 mM DTT and 1.5% DMSO. Final substrate concentrations in the assay were 20 μM ATP (Sigma Chemicals, St Louis, Mo.) and 300 μM peptide (HSSPHQS (PO3H2) EDEEE, American Peptide, Sunnyvale, Calif.). Reactions were carried out at 30° C. and 20 nM GSK-3β. Final concentrations of the components of the coupled enzyme system were 2.5 mM phosphoenolpyruvate, 300 μM NADH, 30 μg/ml pyruvate kinase and 10 μg/ml lactate dehydrogenase.
An assay stock buffer solution was prepared containing all of the reagents listed above with the exception of ATP and the test compound of interest. The assay stock buffer solution (175 μl) was incubated in a 96 well plate with 5 μl of the test compound of interest at final concentrations spanning 0.002 μM to 30 μM at 30° C. for 10 min. […] The reaction was initiated by the addition of 20 μl of ATP (final concentration 20 μM). Rates of reaction were obtained using a Molecular Devices Spectramax plate reader (Sunnyvale, Calif.) over 10 min at 30° C. The Ki values were determined from the rate data as a function of inhibitor concentration.

T1 sequence (P49841 whole entry, the tested form may be a part): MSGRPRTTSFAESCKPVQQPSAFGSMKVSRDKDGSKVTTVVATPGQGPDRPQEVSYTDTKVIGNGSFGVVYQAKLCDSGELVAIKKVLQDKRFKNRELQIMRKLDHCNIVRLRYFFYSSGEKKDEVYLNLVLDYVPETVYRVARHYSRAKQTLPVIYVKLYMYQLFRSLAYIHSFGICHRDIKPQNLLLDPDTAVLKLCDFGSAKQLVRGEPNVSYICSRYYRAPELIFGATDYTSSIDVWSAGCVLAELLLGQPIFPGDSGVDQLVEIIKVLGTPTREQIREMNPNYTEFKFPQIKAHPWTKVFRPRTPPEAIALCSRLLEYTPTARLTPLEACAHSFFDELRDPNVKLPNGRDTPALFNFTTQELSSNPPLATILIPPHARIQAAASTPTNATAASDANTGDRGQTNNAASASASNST

SMILES	Ki
CC(=O)Nc1ccc(Sc2nc(Nc3cc(C)[nH]n3)cc(-c3ccccc3)n2)cc1 [IIIa-11, [2-(4-Acetamido-phenylsulfanyl)-6-phenyl-pyrimidin-4-yl]-(5-methyl-2H-pyrazol-3-yl)-amine]	0.1 to 1 µM
CCC(=O)Nc1ccc(Sc2nc(Nc3cc(C)[nH]n3)cc(-c3ccccc3)n2)cc1 [IIIa-15, (5-Methyl-2H-pyrazol-3-yl)-[6-phenyl-2-(4-propionylamino-phenylsulfanyl)-pyrimidin-4-yl]-amine]	1 to 7 µM
Cc1cc(Nc2cc(N3CCN(C)CC3)nc(SCc3ccccc3)n2)n[nH]1 [IIIa-28, [2-Benzylsulfanyl-6-(4-methylpiperazin-1-yl)-pyrimidin-4-yl]-(5-methyl-2H-pyrazol-3-yl)-amine]	1 to 7 µM
Cc1cc(Nc2cc(N3CCOCC3)nc(SCc3ccccc3)n2)n[nH]1 [IIIa-29, [2-Benzylsulfanyl-6-morpholin-4-yl-pyrimidin-4-yl]-(5-methyl-2H-pyrazol-3-yl)-amine]	0.1 to 1 µM
Cc1cc(Nc2cc(N3CCN(C)CC3)nc(SCc3cccc(Cl)c3)n2)n[nH]1 [IIIa-30, [2-(3-Chloro-benzylsulfanyl)-6-(4-methylpiperazin-1-yl)-pyrimidin-4-yl]-(5-methyl-2H-pyrazol-3-yl)-amine]	0.1 to 1 µM
COc1ccc(CSc2nc(Nc3cc(C)[nH]n3)cc(N3CCN(C)CC3)n2)cc1 [IIIa-31, [2-(4-methoxy-benzylsulfanyl)-6-(4-methylpiperazin-1-yl)-pyrimidin-4-yl]-(5-methyl-2H-pyrazol-3-yl)-amine]	0.1 to 1 µM
Cc1cc(Nc2cc(N3CCOCC3)nc(SCc3ccc(S(=O)(=O)N4CCOCC4)cc3)n2)n[nH]1 [IIIa-35, (5-Methyl-2H-pyrazol-3-yl)-{2-[4-(morpholinesulfonyl)-benzylsulfanyl]-6-morpholin-4-yl-pyrimidin-4-yl}-amine]	1 to 7 µM
CCC(=O)Nc1ccc(Sc2nc(COC)cc(Nc3cc(C)[nH]n3)n2)cc1 [IIIa-38, [6-Methoxymethyl-2-(4-propionylamino-phenyl-sulfanyl)-pyrimidin-4-yl]-(5-methyl-2H-pyrazol-3-yl)-amine]	1 to 7 µM
COc1cc(CSc2nc(Nc3cc(C)[nH]n3)cc(N3CCCC3)n2)cc(OC)c1 [IIIa-41, [2-(3,5-Dimethoxy-benzylsulfanyl)-6-pyrrolidin-4-yl-pyrimidin-4-yl]-(5-methyl-2H-pyrazol-3-yl)-amine]	1 to 7 µM
CCC(=O)Nc1ccc(Sc2nc(CO)cc(Nc3cc(C)n[nH]3)n2)cc1 [IIIa-45, [6-Hydroxymethyl-2-(4-propionylamino-phenyl-sulfanyl)-pyrimidin-4-yl]-(5-methyl-2H-pyrazol-3-yl)-amine]	1 to 7 µM
CNC(=O)c1cc(Nc2cc(C)[nH]n2)nc(Sc2ccc(NC(C)=O)cc2)n1 [IIIa-49]	1 to 7 µM
CC(=O)Nc1ccc(Oc2nc(Nc3cc(C)[nH]n3)cc(-c3ccccc3)n2)cc1 [IIIb-11]	0.1 to 1 µM
Cc1cc(Nc2cc(-c3ccccc3)nc(Oc3ccc4ccccc4c3)n2)n[nH]1 [IIIb-12]	0.1 to 1 µM
Cc1cc(Nc2cc(-c3ccccc3)nc(Oc3ccc(NC(=O)C(C)C)cc3)n2)n[nH]1 [IIIb-13]	< 0.1 µM
Cc1cc(Nc2cc(-c3ccccc3)nc(Nc3ccccc3)n2)n[nH]1 [IIIc-1, (5-Methyl-2H-pyrazol-3-yl)-(6-phenyl-2-phenylamino-pyrimidin-4-yl)-amine]	0.1 to 1 µM
COc1cc(-c2cc(Nc3cc(C)[nH]n3)nc(Nc3ccc(S(N)(=O)=O)cc3)n2)cc(OC)c1OC [IIIc-8, (5-Methyl-2H-pyrazol-3-yl)-[2-(4-sulfamoylphenylamino)-6-(3,4,5-trimethoxyphenyl)-pyrimidin-4-yl]-amine]	0.1 to 1 µM
Cc1cc(Nc2cc(-c3ccccc3)[nH]n2)nc(Nc2nc3ccccc3[nH]2)n1 [IIIc-16, [2-(Benzimidazol-2-ylamino)-6-methyl-pyrimidin-4-yl]-(5-phenyl-2H-pyrazol-3-yl)-amine]	1 to 7 µM

SMILES	Ki
Cc1cc(Nc2cc(-c3ccco3)[nH]n2)nc(Nc2nc3ccccc3[nH]2)n1 [IIIc-17, [2-(Benzimidazol-2-ylamino)-6-methyl-pyrimidin-4-yl]-[5-(Furan-2-yl)-2H-pyrazol-3-yl]-amine]	1 to 7 µM
Cc1cc(Nc2cc(C)[nH]n2)nc(Nc2ccc(Cl)cc2)n1 [IIIc-18, [2-(4-Chlorophenylamino)-6-methyl-pyrimidin-4-yl]-(5-methyl-2H-pyrazol-3-yl)-amine]	< 0.1 µM
Cc1cc(Nc2nc(Nc3ccc(Cl)cc3)nc(C)c2C)n[nH]1 [IIIc-19, [2-(4-Chlorophenyl)amino-5,6-dimethyl-pyrimidin-4-yl]-(5-methyl-2H-pyrazol-3-yl)-amine]	< 0.1 µM
Cc1cc(Nc2nc(Nc3ccccc3)nc(C)c2C)n[nH]1 [IIIc-20, (5,6-Dimethyl-2-phenylamino-pyrimidin-4-yl)-(5-methyl-2H-pyrazol-3-yl)-amine]	0.1 to 1 µM
COCc1cc(Nc2cc(C)[nH]n2)nc(Nc2ccc(Cl)cc2)n1 [IIIc-21, [2-(4-Chlorophenyl)amino-6-methoxymethyl-pyrimidin-4-yl]-(5-methyl-2H-pyrazol-3-yl)-amine]	< 0.1 µM
COCc1cc(Nc2cc(C)[nH]n2)nc(Nc2nc3ccccc3[nH]2)n1 [IIIc-22, [2-(Benzimidazol-2-ylamino)-6-methoxymethyl-pyrimidin-4-yl]-(5-methyl-2H-pyrazol-3-yl)-amine]	1 to 7 µM
COCc1cc(Nc2cc(C)[nH]n2)nc(Nc2ccccc2)n1 [IIIc-23, (6-Methoxymethyl-2-phenylamino-pyrimidin-4-yl)-(5-methyl-2H-pyrazol-3-yl)-amine]	0.1 to 1 µM
Cc1cc(Nc2cc(C)[nH]n2)nc(Nc2ccccc2)n1 [IIIc-24, (6-Methyl-2-phenylamino-pyrimidin-4-yl)-(5-methyl-2H-pyrazol-3-yl)-amine]	< 0.1 µM
Cc1cc(Nc2cc(C)[nH]n2)nc(C(C)(C)c2ccccc2)n1 [IIId-21]	< 0.1 µM
Cc1cc(Nc2nc(Nc3ccccc3)nc3c2CCCC3)n[nH]1 [IIc-45, (5-Methyl-2H-pyrazol-3-yl)-(2-phenylamino-5,6,7,8-tetrahydroquinazolinin-4-yl)-amine]	0.1 to 1 µM
c1ccc(Nc2nc(Nc3n[nH]c4ccccc34)c3ccccc3n2)cc1 [IIc-70, (1H-Indazol-3-yl)-(2-phenylamino-quinazolin-4-yl)-amine]	1 to 7 µM
FC(F)(F)c1ccc(Nc2nc(Nc3n[nH]c4ccccc34)c3ccccc3n2)cc1 [IIc-72, (1H-Indazol-3-yl)-[2-(4-trifluoromethylphenylamino)-quinazolin-4-yl]-amine]	0.1 to 1 µM
N#CCc1ccc(Nc2nc(Nc3n[nH]c4ccccc34)c3ccccc3n2)cc1 [IIc-77, [2-(4-Cyanomethylphenylamino)-quinazolin-4-yl]-(1H-indazol-3-yl)-amine]	< 0.1 µM
Cc1cc(Nc2nc(Nc3ccc(Cl)cc3)nc3c2CCCC3)n[nH]1 [IIc-78, [2-(4-Chlorophenylamino)-5,6,7,8-tetrahydroquinazolinin-4-yl]-(5-methyl-2H-pyrazol-3-yl)-amine]	< 0.1 µM
Cc1cc(Nc2nc(Nc3ccccc3)nc3c2CCCCC3)n[nH]1 [IIc-79, (5-Methyl-2H-pyrazol-3-yl)-(2-phenylamino-6,7,8,9-tetrahydro-5H-cycloheptapyrimidin-4-yl)-amine]	0.1 to 1 µM
Cc1cc(Nc2nc(C(C)(C)c3ccccc3)nc3c2CCCCC3)n[nH]1 [IId-14]	< 0.1 µM
